Assay results: patent publication US20240208984A1, “BIVALENT LIGANDS TO UNDERSTAND DIMERIZATION OF THE MU OPIOID RECEPTOR AND THE CHEMOKINE RECEPTOR CCR5 IN NEUROLOGICAL DISORDERS” (priority 2021, published 2024)

Legend:
[1] = tested on: HIV-1BaL Env-pseudotyped Luc-expressing virus; assay: HIV-1 infection assay in PHA-stimulated PBMC cells; format: cell-based; details: PHA-stimulated PBMCs, 100 nM
Experimental: Peripheral blood mononuclear cells (PBMCs) include large numbers of CCR5-expressing leukocytes and are susceptible to infection by R5-tropic HIV-1 strains.
In a 24-well plate, PHA-stimulated PBMC cells from healthy donors were infected by incubation with the HIV-1BaL.01 env-pseudotyped Luc virus. A concentration of HIV-1 p24 50 pg/106 cells was used, and uninfected cells served as a negative control. […] After approximately 18-20 h, the supernatant was removed and stored at −80° C., cells were rinsed twice with PBS and lysed. The lysate was subsequently tested for the relative Tat protein expression by using a luciferase assay system (Promega). Luciferase activity was measured using a PHERASTAR® FS plate reader (BMG Labtech).

HIV-1BaL [2] = assay: HIV-1BaL infection assay in MOR-CCR5 co-expressed TZM-b1 cells; format: cell-based; details: read-out: Inhibition of HIV-1BaL infection EC50
Experimental: CCR5-expressing TZM-b1 cells co-express an HIV-1 long-terminal repeat (LTR)-firefly luciferase reporter that can be activated by Tat (trans-activator of transcription) in cells expressing HIV. […] To initially determine whether the co-expression of MOR affected HIV-1 entry/expression, OPRM1- or control plasmid-transfected TZM-b1 cells were exposed to varying concentrations of HIV-1BaL and HIV-1 entry was calculated based on LTR-driven luciferase activity.
HIV-1BaL.01 was kindly donated and expanded in Phytohemagglutinin (PHA)-activated Peripheral Blood Mononuclear Cells (PBMCs). The amount of viral particles was determined by commercial ELISA for p24 capsid antigen (Zeptometrix) and aliquots were stored at −80° C. The TZM-b1, a cell line contained integrated copies of luciferase under control of the HIV-1 long-terminal repeat (LTR), were kindly donated.
Cells were transfected with plasmid containing GFP-tagged human opioid receptor mu 1 gene (OPRM1; Origene) or with the original empty vector also containing GFP (control plasmid; Origene) and selected for 2 weeks with 2 mg/ml G418 (Invivogen) in DMEM (Hyclone) supplemented with 1×MEM Non-essential amino acids (Gibco), 10% heat-inactivated FBS (Hyclone) and 100 U Penicillin-0.1 mg/ml Streptomycin (Sigma). Then, GFP+ cells were sorted out twice by flow cytometry (BDFACSAria model, Becton-Dickinson) and maintained in the conditions mentioned above with 800 μg/ml G418. For the infection, cells were detached from 25 cm2 flasks with 0.25% Trypsin (Sigma), washed by centrifugation (400 g—10 mins) and viable cells determined by Trypan blue (Sigma) exclusion. […] Luciferase activity was evaluated following the addition of 100 μL/well of 2× luciferase substrate containing lysis buffer (BRIGHT-GLO™ Luciferase Substrate, Promega) after 2-3 days of infection.
Luminescence, reported as relative luminescence units (RLU), was evaluated in PHERASTAR® FS plate reader and results expressed as percentage of inhibition relative to vehicle-treated, infected cells (100% infection).

mouse MOR = mouse MOR (Mus musculus (Mouse), UniProt P42866); assay: In vitro MOR radioligand binding assay; details: [3H]naloxone radioligand; mMOR-CHO; mean ± SEM; read-out: MOR Radioligand Binding Affinity Ki
Chain of mouse MOR (P42866 whole entry, looked up): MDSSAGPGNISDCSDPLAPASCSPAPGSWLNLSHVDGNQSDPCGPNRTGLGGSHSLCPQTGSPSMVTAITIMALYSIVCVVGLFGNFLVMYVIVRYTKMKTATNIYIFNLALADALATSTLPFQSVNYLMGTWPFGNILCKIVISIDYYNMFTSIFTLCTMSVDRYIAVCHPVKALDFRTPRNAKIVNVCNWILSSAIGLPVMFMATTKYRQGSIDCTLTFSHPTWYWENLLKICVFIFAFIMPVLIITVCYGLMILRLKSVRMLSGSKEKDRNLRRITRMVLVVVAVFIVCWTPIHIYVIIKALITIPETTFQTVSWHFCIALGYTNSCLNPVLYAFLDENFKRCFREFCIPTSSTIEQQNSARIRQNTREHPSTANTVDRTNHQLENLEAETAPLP
Experimental: In vitro MOR radioligand binding studies. All bivalent ligands were first tested for their binding affinity to the MOR. The competitive radioligand binding assay was conducted using monoclonal mouse MOR expressed in CHO cell lines (mMOR-CHO).
In vitro MOR radioligand binding assay The competition binding assay was conducted using monoclonal mouse MOR expressed in Chinese hamster ovary (CHO) cell lines. In this assay, 30 μg of membrane protein was incubated with the radioligand [^3H] naloxone in the presence of different concentrations of tested compounds in TME buffer (50 mM Tris, 3 mM MgCl2, and 0.2 mM EGTA, pH 7.4) for 1.5 h at 30° C. The bound radioligand was separated by filtration using a Brandel harvester. […] The IC50 values were determined and converted to Ki values using the Cheng-Prusoff equation: Ki=IC50/[1+([L*]/KD)], where [L*] is the concentration of the radioligand and KD is the KD of the radioligand was determined.73

mouse mu opioid receptor = mouse mu opioid receptor (Mus musculus (Mouse), UniProt P42866); assay: Calcium mobilization assay in mMOR-CHO cells; format: cell-based
Chain of mouse mu opioid receptor (P42866 whole entry, looked up): as above
Experimental: Calcium mobilization assay results in mMOR-CHO cells. The pharmacological profiles of the three newly prepared MOR bivalent ligands were further characterized for their effects on MOR-dependent intracellular Ca^2+ signaling in an mMOR-CHO cell line that was transfected with chimeric Gqi5 protein as previously described.
A CHO cell line stably expressing the mouse mu opioid receptor (mMOR-CHO) was used for this assay. The cells were transfected with Gαqi5 for 4 h and then plated (10,000 cells/well) to black 96-well plates with clear bottoms (Greiner Bio-One). After 24 h of incubation, the culture medium was removed, and the cells were washed with assay buffer (50 mL of HBSS, 1 mL of HEPES, 250 μL of probenecid, 50 μL of 1 mM CaCl2, and 50 μL of 1 mM MgCl2). The tested compounds were dissolved in DMSO as a stock solution for the assay (1 M). For agonist assays, cells were then incubated with 50 μL/well loading buffer (6 mL of assay buffer, 24 μL of Fluo4-AM solution (Invitrogen), and 12 μL of probenecid solution) for 60 min. Following incubation, different concentrations of the tested compounds were added by a FlexStation3 microplate reader (Molecular Devices) and read at ex494/em516. Each concentration was run in triplicate. For antagonism studies, the cells were incubated with the same loading buffer as the agonist assay for 60 min. Then, different concentrations of the tested compounds (20 μL/well) were manually added to each well followed by another 15 min of incubation. […] Each concentration was run in triplicate. The corresponding IC50 value of each compound was calculated by non-linear regression using GraphPad Prism 8.0.1 (GraphPad Software, San Diego, CA).

HIV-1BaL [3] = assay: Anti-HIV-1BaL activity (reverse transcriptase activity) in GHOST CCR5 cells; details: read-out: Inhibition of HIV-1BaL EC50, RT activity, triplicate
Experimental: This assay was run in GHOST-CCR5 cells using the CCR5-tropic viral strain HIV-1BaL.
100 μL of GHOST CCR5 cells at a density of 1×10^4 cells/well in 10% complete DMEM (10% FBS with 1% L-glutamine and 1% Penicillin/Streptomycin) media were plated in a 96-well flat bottom plate and incubated for 24 h at 37° C./5% CO2. Following the incubation, 100 μL of each compound at 6 concentrations were added in triplicate to both efficacy and toxicity plates followed by 100 μL of HIV-1BaL at a pre-determined titer to the plates being evaluated for efficacy and 50 μL of complete DMEM to the plates being evaluated for cytotoxicity. The cultures were incubated for 6 days at 37° C./5% CO2. Following the incubation, 50 μL of cell culture supernatant was removed from the wells of the efficacy plates for subsequent evaluation of virus content by reverse transcriptase activity assay. The toxicity plates being evaluated for cytotoxicity were stained with XTT.
RT activity (EC50 values) was measured using standard radioactivity incorporation polymerization assay. 1 μL of titrated thymidine triphosphate (TTP) at 1 Ci/mL was used per enzyme reaction. Poly rA and oligo dT were prepared at concentrations of 0.5 mg/mL and 1.7 Units/mL, respectively, from a stock solution which was kept at −20° C. The RT reaction buffer was prepared fresh and consists of 125 μL of 1M EGTA, 125 μL of dH2O, 125 μL of 20% Triton X-100, 50 μL of 1M Tris (pH 7.4), 50 μL of 1M DTT, and 40 μL of 1 M MgCl2. For each reaction, 1 μL of TTP, 4 μL of dH2O, 2.5 μL of rAdT and 2.5 μL of reaction buffer were mixed. 10 μL of this reaction mixture was placed in a round bottom microtiter plate with 15 μL of virus containing supernatant. The plate was incubated at 37° C. in a humidified incubator for 60-90 min. […] The dried filtermat was placed in a plastic sleeve and 4 mL of Opti-Fluor O (Perkin Elmer, catalog #1205-440) scintillation fluid was added to each sleeve. […] TC50 values for the tested compounds were derived by measuring the reduction of the tetrazolium dye XTT (2,3-bis(2-methoxy-4-nitro-5-sulfophenyl)-5-[(phenylamino)carbonyl]-2H-tetrazolium hydroxide). XTT in metabolically active cells is metabolized by the mitochondrial enzyme NADPH oxidase to a soluble formazan product. XTT solution was prepared as a stock of 1 mg/mL in RPMI-1640 without additives. Phenazine methosulfate (PMS) solution was prepared at 0.15 mg/mL in DPBS and stored in the dark at −20° C. XTT/PMS stock was prepared immediately before use by adding 40 μL of PMS per mL of XTT solution. […] The plates were sealed and inverted several times to mix the soluble formazan product and the plate was read at 450 nm (650 nm reference wavelength) with a Molecular Devices SPECTRAMAX® Plus 384 96 well format spectrophotometer.

CCR5 = CCR5 (Homo sapiens (Human), UniProt P51681); assay: Calcium mobilization assay in HOS-CCR5 cells; format: cell-based
Chain of CCR5 (P51681 whole entry): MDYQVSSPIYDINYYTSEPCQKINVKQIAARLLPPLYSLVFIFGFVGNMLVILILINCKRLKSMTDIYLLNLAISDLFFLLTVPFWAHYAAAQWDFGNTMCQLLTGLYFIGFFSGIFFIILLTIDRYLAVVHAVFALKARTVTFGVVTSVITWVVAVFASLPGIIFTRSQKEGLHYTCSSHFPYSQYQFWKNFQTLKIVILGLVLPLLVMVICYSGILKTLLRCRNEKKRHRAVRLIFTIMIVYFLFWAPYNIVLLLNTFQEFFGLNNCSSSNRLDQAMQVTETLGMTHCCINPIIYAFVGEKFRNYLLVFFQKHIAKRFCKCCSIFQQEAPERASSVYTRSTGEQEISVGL
Experimental: We then conducted the calcium mobilization assay to further test both the agonist and antagonist properties of the newly synthesized compounds in the HOS-CCR5 (stably transfected for the expression of CCR5) cells using our reported protocol, as calcium mobilization is associated with the activation of CCR5. Prior to the assay, the HOS-CCR5 cells were transiently transfected with a Gqi5 to boost calcium signaling levels.
In the antagonism assay, these compounds were assessed for their ability to inhibit CCL5-stimulated Ca^2+ mobilization.
HOS-CCR5 cells were transfected with Gqi5 pcDNA16 using Lipofectamine 2000 (Invitrogen) according to the manufacturer's recommended procedure and maintained in RPMI 1640 supplemented with 10% fetal bovine serum, 100 μg/mL penicillin, 100 μg/mL streptomycin, and 1 mg/mL G418 at 37° C. and 5% C02. 48 h after transfection, a total of 2,500,000 cells were spun down and brought back up in 8 mL of 50:1 HBSS: HEPES assay buffer. Cells were then plated at 25,000 cells per well into a clear bottom, black 96-well plate (Greiner Bio-one) and 50 μL of Fluo4 loading buffer [40 μL of 2 μM Fluo4-AM (Invitrogen), 100 μL of 2.5 mM probenecid, in 5 mL of assay buffer] was added to bring the volume up to 130 μL. After incubating for 45 min, 50 μL of varying concentrations of tested compounds were added and the plate was incubated for an additional 15 min. Plates were then read on a FlexStation3 microplate reader (Molecular Devices) at 494/516 ex/em for a total of 120 s. After 16 s of reading, 20 μL of 200 nM CCL5 (Biosource) in assay buffer, or assay buffer alone, was added to the wells to bring the total volume up to 200 μL. The changes in calcium mobilization were monitored and peak height values were obtained using SoftMaxPro software (Molecular Devices). Non-linear regression curves and IC50 values were generated using GraphPad Prism 8.0.1 (GraphPad Software, San Diego, CA). All experiments were repeated at least three times.

[4] = molecular target: Rhesus macaque chemokine CCR5 receptors (Macaca mulatta (Rhesus macaque), UniProt P61813); assay: In vitro CCR5 radioligand binding assay; details: [125I]MIP-1α radioligand; Chem-1 cells; Cheng-Prusoff; mean ± SEM; read-out: CCR5 Radioligand Binding Affinity Ki
Experimental: In vitro CCR5 radioligand binding studies. To verify the binding affinity of the bivalent ligands to the CCR5, the competitive radioligand binding assay was conducted in recombinant rhesus macaque CCR5-expressing Chem-1 cells, and macrophage inflammatory protein 1 beta (MIP-1β) was used as a control.
The CCR5 competitive radioligand binding assay was conducted following previously reported studies.74, 75 Rhesus macaque chemokine CCR5 receptors expressed in Chem-1 cells are assayed in modified HEPES buffer (50 mM HEPES, 1 mM CaCl2, 5 mM MgCl2, 0.2% BSA, pH 7.4). 3 μg of membrane protein was incubated with 0.10 nM [^125I]MIP-1α in the presence of six concentrations of tested compounds (10 μM, 1 μM, 0.1 μM, 10 nM, 1 nM, and 0.1 nM) for 90 min at 25° C. Non-specific binding is estimated in the presence of 0.1 μM MIP-1β.

Q: With CC(C)c1nnc(CCNC(=O)COCC(=O)NCCCCCCCNC(=O)COCC(=O)NC2CC[C@@]3(O)[C@H]4Cc5ccc(O)c6c5[C@@]3(CCN4CC3CC3)[C@H]2O6)n1C1CC2CCC(C1)N2CC[C@H](NC(=O)C1CCC(F)(F)CC1)c1ccccc1 (stereo partly shown) [VZMC013] as the compound, how does the “decrease in HIV expression” value ([1]; co-exposed to DAMGO 10 nM) read?
A: 69%

Q: And the “decrease in HIV expression” value ([1]; co-exposed to morphine 10 nM)?
A: 55%

Q: And the “reduction in luminescence (viral entry)” value ([1]; no opioid)?
A: 22%

Q: What about the EC50 (HIV-1BaL [2]; OPRM1 transfected TZM-b1 cells, morphine 100 μM added) of the same compound?
A: 247 nM

Q: And the EC50 (HIV-1BaL [2]; OPRM1 transfected TZM-b1 cells, without morphine)?
A: 368 nM

Q: What about the EC50 (HIV-1BaL [2]; control plasmid transfected TZM-b1 cells) of the same compound?
A: 610 nM

Q: And the Ki (mouse MOR)?
A: 6.05 nM

Q: What about the “MOR agonism in Ca2+ mobilization” value (mouse mu opioid receptor; agonist mode, varying concentrations) of the same compound?
A: No agonism was observed

Q: And the IC50 (mouse mu opioid receptor; read-out: Inhibition of DAMGO Induced Ca2+ Mobilization IC50, mMOR-CHO transfected with Gqi5, DAMGO 500 nM, mean ± SEM)?
A: 50 ± 2.45 nM

Q: What about the EC50 (HIV-1BaL [3]) of the same compound?
A: 93 nM

Q: What about the IC50 (CCR5; HOS-CCR5 transfected with Gqi5, mean ± SEM, read-out: Inhibition of CCL5-stimulated Intracellular Ca2+ Mobilization IC50) of the same compound?
A: 57.5 nM

Q: What about the “CCR5 activation (agonism) in Ca2+ mobilization” value (CCR5; agonist mode, range of concentrations tested) of the same compound?
A: none of these compounds appeared to activate CCR5

Q: And the Ki [4]?
A: 3.29 nM
